Source: US20170305857A1, “N-ACYLPIPERIDINE ETHER TROPOMYOSIN-RELATED KINASE INHIBITORS” (Pfizer Limited, priority 2014, published 2017)
pIC50: −log10 of the molar value.

Biological target: T1, recombinant His-tagged cytoplasmic domains of TRKA receptor (NTRK1, PV3144, aa 441-796) (Homo sapiens, UniProt P04629)
T1 construct: aa 441-796; His; purchased Invitrogen PV3144
Experiment: Isolated TRK enzyme assay (HTRF KinEASE-TK, PV3144 TrkA enzyme assay)
Type: biochemical
Settings: 4 nM enzyme, 40 uM ATP, 35 min, arithmetic mean where more than one reading
Procedure: Isolated TRK Enzyme assays use the HTRF KinEASE-TK kit (Cisbio Cat #62TK0PEJ) with recombinant His-tagged cytoplasmic domains of TRKA receptor sourced from Invitrogen (see table below). This activity-assay measures the phosphorylation of tyrosine residues within a substrate from the HTRF kit which has been validated by Cisbio for a variety of tyrosine kinases including the TRK receptors.
0.5 mM stock solutions of test compounds are prepared and serially diluted in 100% DMSO. […] Greiner low volume black plates containing 0.2 ul of serially diluted compound, standard and HPE/ZPE are created using the Bravo nanolitre dispenser.
1× enzyme buffer is prepared from 5× Enzymatic Buffer from the Cisbio KinEASE TK kit using MilliQ water. The buffer is then supplemented with 10 mM MgCl and 2 mM DTT (both from Sigma).
Following this preactivation step, 5 ul/well of enzyme+ATP mix is added using a Multidrop Micro to the assay plate, spotted with 0.2 ul 100% DMSO compound. This is left for 20 mins at room temperature before adding 5 ul of 2 uM TK-substrate-Biotin (from the Cisbio kit) diluted in 1× enzyme buffer (1 uM FAC) using the Multidrop Micro. The reaction is incubated at room temperature for the optimized assay reaction time (see table).
After the Detection Reagent addition, plates are covered and incubated at room temperature for 60 minutes. […] Test compound data are expressed as percentage inhibition defined by HPE and ZPE values for each plate. Percentage inhibition in the presence of test compound is plotted against compound concentration on a log scale to determine an IC50 from the resultant sigmoid curve.
Where more than one reading was taken, the arithmetic mean is presented.

T1 sequence (P04629 441-796): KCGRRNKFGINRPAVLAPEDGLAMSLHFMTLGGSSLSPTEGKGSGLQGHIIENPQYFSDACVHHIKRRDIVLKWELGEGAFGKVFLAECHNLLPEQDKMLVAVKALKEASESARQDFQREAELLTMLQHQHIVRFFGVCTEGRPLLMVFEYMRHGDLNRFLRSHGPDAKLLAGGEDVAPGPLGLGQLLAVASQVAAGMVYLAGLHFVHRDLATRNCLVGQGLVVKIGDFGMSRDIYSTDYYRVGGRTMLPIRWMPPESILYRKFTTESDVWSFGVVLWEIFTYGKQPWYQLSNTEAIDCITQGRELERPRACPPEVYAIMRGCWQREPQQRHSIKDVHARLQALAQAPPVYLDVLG

Row | pIC50 | Structure (SMILES)
1 | 9.40 | NC(=O)c1cc(-c2cnn(C3CS(=O)(=O)C3)c2)ccc1O[C@@H]1CCN(C(=O)Cc2ccc(OC(F)(F)F)cc2)C[C@@H]1F [Example 1, 5-[1-(1,1-dioxidothietan-3-yl)-1H-pyrazol-4-yl]-2-{[(3S,4R)-3-fluoro-1-{[4-(trifluoromethoxy)phenyl]acetyl}piperidin-4-yl]oxy}benzamide]
2 | 7.98 | NC(=O)c1cc(-c2cn[nH]c2)ncc1O[C@H]1CCN(C(=O)Cc2ccc(OC(F)(F)F)cc2)C[C@@H]1F [Example 86, 5-{[(3S,4S)-3-fluoro-1-{[4-(trifluoromethoxy)phenyl]acetyl}piperidin-4-yl]oxy}-2-(1H-pyrazol-4-yl)pyridine-4-carboxamide]
3 | 8.31 | CC(C)(O)Cn1cc(-c2cnc(O[C@H]3CCN(C(=O)Cc4ccc(OC5CC5)cn4)C[C@H]3F)c(C(N)=O)c2)cn1 [Example 33, 2-{[(3R,4S)-1-{[5-(cyclopropyloxy)pyridin-2-yl]acetyl}-3-fluoropiperidin-4-yl]oxy}-5-[1-(2-hydroxy-2-methylpropyl)-1H-pyrazol-4-yl]pyridine-3-carboxamide]
4 | 8.18 | NC(=O)c1cc(-c2cn(C[C@H](O)CO)cn2)ccc1OC1CCN(C(=O)Cc2ccc(OC(F)(F)F)cc2)CC1 [Example 125]
5 | 8.13 | CS(=O)(=O)Cn1cc(-c2cc(C(N)=O)c(O[C@@H]3CCN(C(=O)Cc4ccc(OC(F)(F)F)c(F)c4)C[C@@H]3F)cn2)cn1 [Example 37, 5-{[(3S,4R)-3-fluoro-1-{[3-fluoro-4-(trifluoromethoxy)phenyl]acetyl}piperidin-4-yl]oxy}-2-{1-[(methylsulfonyl)methyl]-1H-pyrazol-4-yl}pyridine-4-carboxamide]
6 | 8.77 | NC(=O)c1cc(-c2cn[nH]c2)ncc1O[C@@H]1CCN(C(=O)Cc2ccc(OC(F)(F)F)cc2)C[C@@H]1F [Example 85, 5-{[(3S,4R)-3-fluoro-1-{[4-(trifluoromethoxy)phenyl]acetyl}piperidin-4-yl]oxy}-2-(1H-pyrazol-4-yl)pyridine-4-carboxamide]
7 | 8.35 | Cn1cc(-c2ccc(OC3CCN(C(=O)Cc4ccc(OC(F)(F)F)c(F)c4)CC3)c(C(N)=O)c2)cn1 [Example 111, 2-[(1-{[3-fluoro-4-(trifluoromethoxy)phenyl]acetyl}piperidin-4-yl)oxy]-5-(1-methyl-1H-pyrazol-4-yl)benzamide]
8 | 8.00 | NC(=O)c1cc(-c2cn[nH]c2)cnc1O[C@H]1CCN(C(=O)Cc2ccc(OC3CC3)cn2)C[C@@H]1F [Example 80, 2-{[(3S,4S)-1-{[5-(cyclopropyloxy)pyridin-2-yl]acetyl}-3-fluoropiperidin-4-yl]oxy}-5-(1H-pyrazol-4-yl)pyridine-3-carboxamide]
9 | 8.01 | Cn1cc(-c2ccc(OC3CCN(C(=O)Cc4ccc(C(C)(C)C)cc4)CC3)c(C(N)=O)c2)cn1 [Example 107, 2-({1-[(4-tert-butylphenyl)acetyl]piperidin-4-yl}oxy)-5-(1-methyl-1H-pyrazol-4-yl)benzamide]
10 | 7.91 | NC(=O)c1cc(-c2cnn(CCO)c2)cnc1OC1CCN(C(=O)Cc2ccc(OC3CC3)cc2)CC1 [Example 176, 2-[(1-{[4-(cyclopropyloxy)phenyl]acetyl}piperidin-4-yl)oxy]-5-[1-(2-hydroxyethyl)-1H-pyrazol-4-yl]pyridine-3-carboxamide]
11 | 8.28 | Cn1cnc(-c2ccc(O[C@@H]3[C@@H]4CC[C@H]3CN(C(=O)Cc3ccc(OC(F)(F)F)cc3)C4)c(C(N)=O)c2)c1 [Example 47, 5-(1-methyl-1H-imidazol-4-yl)-2-(((1R,5S,8s)-3-(2-(4-(trifluoromethoxy)phenyl)acetyl)-3-azabicyclo[3.2.1]octan-8-yl)oxy)benzamide]
12 | 8.38 | NC(=O)c1cc(-c2ccn(CCO)n2)ccc1OC1CCN(C(=O)Cc2ccc(OC(F)(F)F)cc2)CC1 [Example 90, 5-[1-(2-hydroxyethyl)-1H-pyrazol-3-yl]-2-[(1-{[4-{trifluoromethoxy)phenyl]acetyl}piperidin-4-yl)oxy]benzamide]
13 | 8.16 | CC(C)(O)Cn1cc(-c2ccc(O[C@@H]3CCN(C(=O)Cc4ccc(OC5CC5)cn4)C[C@H]3F)c(C(N)=O)c2)cn1 (racemic) [Example 43]
14 | 8.96 | Cc1nc(-c2cnc(O[C@H]3CCN(C(=O)Cc4ccc(OC(F)(F)F)cc4)C[C@H]3F)c(C(N)=O)c2)c[nH]1 [Example 118, 2-{[(3R,4S)-3-fluoro-1-{[4-(trifluoromethoxy)phenyl]acetyl}piperidin-4-yl]oxy}-5-(2-methyl-1H-imidazol-4-yl)pyridine-3-carboxamide]
15 | 8.17 | NC(=O)c1cc(-c2cn[nH]c2)ncc1O[C@@H]1CCN(C(=O)Cc2ccc(OC3CC3)cn2)C[C@@H]1F [Example 87, 5-{[(3S,4R)-1-{[5-(cyclopropyloxy)pyridin-2-yl]acetyl}-3-fluoropiperidin-4-yl]oxy}-2-(1H-pyrazol-4-yl)pyridine-4-carboxamide]
16 | 7.91 | Cc1cn(-c2cnc(O[C@@H]3CCN(C(=O)Cc4ccc(OC(F)(F)F)cc4)C[C@@H]3F)c(C(N)=O)c2)cn1 [Example 162, 2-(((3S,4R)-3-fluoro-1-(2-(4-(trifluoromethoxy)phenyl)acetyl)piperidin-4-yl)oxy)-5-(4-methyl-1H-imidazol-1-yl)nicotinamide]
17 | 7.71 | Cn1cc(-c2ccc(OC3CCN(C(=O)Nc4ccc(OC5CC5)cc4)CC3)c(C(N)=O)c2)cn1 [Example 181, 4-[2-carbamoyl-4-(1-methyl-1H-pyrazol-4-yl)phenoxy]-N-[4-(cyclopropyloxy)phenyl]piperidine-1-carboxamide]
18 | 7.98 | Cn1cnc(-c2ccc(OC3CCN(C(=O)Cc4ccc(OC(F)(F)F)c(Cl)c4)CC3)c(C(N)=O)c2)c1 [Example 16, 2-[(1-{[3-chloro-4-(trifluoromethoxy)phenyl]acetyl}piperidin-4-yl)oxy]-5-(1-methyl-1H-imidazol-4-yl)benzamide]
19 | 8.40 | CC(C)(CO)n1cc(-c2ccc(OC3CCN(C(=O)Cc4ccc(OC(F)(F)F)cc4)CC3)c(C(N)=O)c2)cn1 [Example 62, 5-[1-(1-hydroxy-2-methylpropan-2-yl)-1H-pyrazol-4-yl]-2-[(1-{[4-(trifluoromethoxy)phenyl]acetyl}piperidin-4-yl)oxy]benzamide]
20 | 8.05 | CS(=O)(=O)Cn1cc(-c2cnc(O[C@H]3CCN(C(=O)Cc4ccc(OC(F)(F)F)c(F)c4)C[C@@H]3F)c(C(N)=O)c2)cn1 [Example 26, 2-{[(3S,4S)-3-fluoro-1-{[3-fluoro-4-(trifluoromethoxy)phenyl]acetyl}piperidin-4-yl]oxy}-5-{1-[(methylsulfonyl)methyl]-1H-pyrazol-4-yl}pyridine-3-carboxamide]
21 | 8.08 | NC(=O)c1cc(-c2cscn2)cnc1OC1CCN(C(=O)Cc2ccc(OC(F)(F)F)cc2)CC1 [Example 180]
22 | 8.85 | NC(=O)c1cc(-c2cnn(C3CS(=O)(=O)C3)c2)cnc1O[C@@H]1CCN(C(=O)Cc2ccc(OC(F)(F)F)cc2)C[C@@H]1F [Example 23, 5-[1-(1,1-dioxidothietan-3-yl)-1H-pyrazol-4-yl]-2-{[(3S,4R)-3-fluoro-1-{[4-(trifluoromethoxy)phenyl]acetyl}piperidin-4-yl]oxy}pyridine-3-carboxamide]
23 | 8.85 | Cn1cnc(-c2cnc(O[C@@H]3CCN(C(=O)Cc4ccc(OC5CC5)cc4)C[C@@H]3F)c(C(N)=O)c2)c1 [Example 7, 2-{[(3S,4R)-1-{[4-(cyclopropyloxy)phenyl]acetyl}-3-fluoropiperidin-4-yl]oxy}-5-(1-methyl-1H-imidazol-4-yl)pyridine-3-carboxamide]
24 | 8.27 | NC(=O)c1cc(-c2cnn(CCO)c2)cnc1OC1CCN(C(=O)Cc2ccc(OC(F)(F)F)cc2)CC1 [Example 89, 5-[1-(2-hydroxyethyl)-1H-pyrazol-4-yl]-2-[(1-{[4-(trifluoromethoxy)phenyl]acetyl}piperidin-4-yl)oxy]pyridine-3-carboxamide]
25 | 7.98 | NCc1ccc(-c2cnc(OC3CCN(C(=O)Cc4ccc(OC(F)(F)F)cc4)CC3)c(C(N)=O)c2)cc1 [Example 98, 5-[4-(aminomethyl)phenyl]-2-[(1-{[4-(trifluoromethoxy)phenyl]acetyl}piperidin-4-yl)oxy]pyridine-3-carboxamide]
26 | 8.92 | NC(=O)c1cc(-c2cnn(C3CS(=O)(=O)C3)c2)cnc1O[C@H]1CCN(C(=O)Cc2ccc(OC(F)(F)F)cc2)C[C@H]1F [Example 22, 5-[1-(1,1-dioxidothietan-3-yl)-1H-pyrazol-4-yl]-2-{[(3R,4S)-3-fluoro-1-{[4-(trifluoromethoxy)phenyl]acetyl}piperidin-4-yl]oxy}pyridine-3-carboxamide]
27 | 7.71 | CCc1ccc(CC(=O)N2CCC(Oc3ccc(-c4cnn(C)c4)cc3C(N)=O)CC2)cc1 [Example 153, 2-({1-[(4-ethylphenyl)acetyl]piperidin-4-yl}oxy)-5-(1-methyl-1H-pyrazol-4-yl)benzamide]
28 | 7.97 | Cc1nc(-c2cnc(OC3CCN(C(=O)Cc4ccc(OC(F)(F)F)cc4)CC3)c(C(N)=O)c2)c[nH]1 [Example 139, 5-(2-methyl-1H-imidazol-4-yl)-2-[(1-{[4-(trifluoromethoxy)phenyl]acetyl}piperidin-4-yl)oxy]pyridine-3-carboxamide]
